Data reported in patent US9856252B2, “2-(hetero)aryl-benzimidazole and imidazopyridine derivatives as inhibitors of asparagime emethyl transferase” (Cancer Therapeutics CRC Pty Ltd, priority 2013, dated 2018).
Structures can show the parent of a compound that is named as a salt.

Target: Full-length PRMT5 enzyme (NCBI Reference sequence NP_006100.2) co-expressed with His6-MEP50 (Homo sapiens (Human), UniProt O14744)
Experiment: PRMT5 Biochemical Assay
Conditions: histone H4 derived peptide substrate 200 nM, 1 μM S-Adenosyl methionine, 4 hours at 37° C., Transcreener EPIGEN fluorescence polarisation
Procedure: Compounds of the invention may be tested for in vitro activity in the following assay: A histone H4 derived peptide is used as substrate (amino acid sequence: […]N H2). Full-length PRMT5 enzyme (NCBI Reference sequence NP_006100.2) was co-expressed with His6-MEP50 in insect cells and purified via Nickel immobilized metal affinity and gel filtration chromatography (“the enzyme”).
The 6 μL assay reactions are run in Greiner brand black 384-well low volume plates. All reactions contained assay buffer (phosphate buffered saline, 0.01% (v/v) Tween-20, 0.01% (w/v) albumin from chicken egg white, 1 mM dithiothreitol, 200 nM peptide substrate, 1 μM S-Adenosyl methionine, and 15 ng/reaction enzyme, with the enzyme being omitted from negative control reactions. Compounds were added in a volume of 100 nL from dilution series prepared in DMSO, positive and negative control reactions receiving the same volume DMSO without compound. The plates were sealed with adhesive seals and incubated for 4 hours at 37° C. Reaction progress was measured using the Transcreener™ EPIGEN methyltransferase assay (BellBrook Labs, Madison, Wis.) as recommended by the manufacturer. To each reaction 2 μL detection mix were added, containing coupling enzymes, fluorescence polarisation tracer, and AMP antibody. Plates were incubated for 90 minutes before being read on a PerkinElmer EnVision™ plate reader in fluorescence polarisation mode.

Sequence of Full-length PRMT5 enzyme (NCBI Reference sequence NP_006100.2) co-expressed with His6-MEP50 (O14744 whole entry): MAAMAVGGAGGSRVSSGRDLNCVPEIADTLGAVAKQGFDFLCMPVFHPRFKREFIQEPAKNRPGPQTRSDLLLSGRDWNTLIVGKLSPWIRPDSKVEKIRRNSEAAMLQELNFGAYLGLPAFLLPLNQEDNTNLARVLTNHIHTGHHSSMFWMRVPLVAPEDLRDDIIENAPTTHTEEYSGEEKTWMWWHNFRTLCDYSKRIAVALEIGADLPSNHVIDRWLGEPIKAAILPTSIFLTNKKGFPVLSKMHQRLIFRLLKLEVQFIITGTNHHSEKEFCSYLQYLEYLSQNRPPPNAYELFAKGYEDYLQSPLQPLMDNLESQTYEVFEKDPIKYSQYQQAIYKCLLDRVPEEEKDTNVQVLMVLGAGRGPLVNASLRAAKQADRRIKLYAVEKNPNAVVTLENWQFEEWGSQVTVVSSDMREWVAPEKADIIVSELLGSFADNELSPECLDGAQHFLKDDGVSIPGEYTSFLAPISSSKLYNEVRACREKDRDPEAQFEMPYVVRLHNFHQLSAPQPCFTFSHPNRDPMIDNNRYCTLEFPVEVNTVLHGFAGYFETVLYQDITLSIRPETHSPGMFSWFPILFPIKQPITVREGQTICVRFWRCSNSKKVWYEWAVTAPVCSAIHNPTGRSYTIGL
Sequence of Full-length PRMT5 enzyme (NCBI Reference sequence NP_006100.2) co-expressed with His6-MEP50 (Q9BQA1 whole entry partner): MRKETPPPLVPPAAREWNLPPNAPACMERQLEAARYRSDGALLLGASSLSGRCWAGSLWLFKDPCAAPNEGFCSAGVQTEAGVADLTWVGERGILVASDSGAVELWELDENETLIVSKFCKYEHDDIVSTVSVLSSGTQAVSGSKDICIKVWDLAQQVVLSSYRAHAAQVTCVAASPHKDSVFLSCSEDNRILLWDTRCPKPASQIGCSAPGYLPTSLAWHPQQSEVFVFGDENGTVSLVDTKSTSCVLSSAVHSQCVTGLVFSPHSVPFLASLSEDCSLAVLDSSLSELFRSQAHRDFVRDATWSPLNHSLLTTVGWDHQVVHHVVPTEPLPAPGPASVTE

IC50	SMILES
0.535 µM	Fc1ccc(COc2ccc(-c3nc4ccc(N5CCNCC5)nc4[nH]3)cc2)cc1 [Example 59]
0.581 µM	c1ccc(COc2ccc(-c3nc4ccc(NC5CCNCC5)nc4[nH]3)cc2)cc1 [Example 53]
0.215 µM	Cn1cc(-c2cc(-c3nc4cc(C5CCNCC5)cnc4[nH]3)ccc2OCc2ccccc2)cn1 [Example 63, 2-(4-(benzyloxy)-3-(1-methyl-1H-pyrazol-4-yl)phenyl)-6-(piperidin-4-yl)-3H-imidazo[4,5-b]pyridine]
2.66 µM	CN(c1ccc2nc(-c3ccc(OCc4ccccc4)cc3)[nH]c2n1)C1CCCN(C(=O)OC(C)(C)C)C1 (centres unmarked) [Example 30, tert-butyl 3-((2-(4-(benzyloxy)phenyl)-3H-imidazo[4,5-b]pyridin-5-yl)(methyl)amino)piperidine-1-carboxylate]
0.482 µM	CN1CCC(c2cnc3[nH]c(-c4ccc(COc5ccccc5)cc4)nc3c2)CC1 [Example 11, 6-(1-methylpiperidin-4-yl)-2-(4-(phenoxymethyl)phenyl)-3H-imidazo[4,5-b]pyridine]
0.276 µM	Fc1cc(-c2nc3cc(C4CCNCC4)cnc3[nH]2)ccc1OCc1ccccc1 [Example 65, 2-(4-(benzyloxy)-3-fluorophenyl)-6-(piperidin-4-yl)-3H-imidazo[4,5-b]pyridine]
0.148 µM	CCS(=O)(=O)N1CCN(c2ccc3nc(-c4ccc(OCc5ccccc5)cc4)[nH]c3n2)CC1 [Example 27, 2-(4-(benzyloxy)phenyl)-5-(4-(ethylsulfonyl)piperazin-1-yl)-3H-imidazo[4,5-b]pyridine]
0.487 µM	CC(=O)NCCNc1ccc2nc(-c3ccc(OCc4ccccc4)cc3)[nH]c2n1 [Example 22, N-(2-((2-(4-(benzyloxy)phenyl)-3H-imidazo[4,5-b]pyridin-5-yl)amino)ethyl)acetamide]
1.34 µM	O=S(=O)(C1CC1)N1CCC(c2ccc3nc(-c4ccc(OCc5ccccc5)cc4)[nH]c3n2)CC1 [Example 89, 2-(4-(benzyloxy)phenyl)-5-(1-(cyclopropylsulfonyl)piperidin-4-yl)-3H-imidazo[4,5-b]pyridine]
1.02 µM	CN(C)C(=O)Cc1ccnc2[nH]c(-c3ccc(OCc4ccccc4)cc3)nc12 [Example 94, 2-(2-(4-(benzyloxy)phenyl)-3H-imidazo[4,5-b]pyridin-7-yl)-N,N-dimethylacetamide]
0.847 µM	c1ccc(COc2ccc(-c3nc4ccc(Nc5cn[nH]c5)nc4[nH]3)cc2)cc1 [Example 20, 2-(4-(benzyloxy)phenyl)-N-(1H-pyrazol-4-yl)-3H-imidazo[4,5-b]pyridin-5-amine]
1.24 µM	CC(C)(C)OC(=O)N1CCC(CNc2ccc3nc(-c4ccc(OCc5ccccc5)cc4)[nH]c3n2)CC1 [Example 31, tert-butyl 4-(((2-(4-(benzyloxy)phenyl)-3H-imidazo[4,5-b]pyridin-5-yl)amino)methyl)piperidine-1-carboxylate]
0.217 µM	CCS(=O)(=O)N1CC=C(c2ccc3nc(-c4ccc(OCc5ccccc5)cc4)[nH]c3n2)CC1 [Example 97, 2-(4-(benzyloxy)phenyl)-5-(1-(ethylsulfonyl)-1,2,3,6-tetrahydropyridin-4-yl)-3H-imidazo[4,5-b]pyridine]
0.204 µM	c1ccc(OCc2ccc(-c3nc4ccc(C5CCCNC5)nc4[nH]3)cc2)cc1 (centres unmarked) [Example 35, 2-(4-(phenoxymethyl)phenyl)-5-(piperidin-3-yl)-3H-imidazo[4,5-b]pyridine]
0.306 µM	CCS(=O)(=O)N1CCN(c2ccc3nc(-c4ccc(OCc5ccccc5)c(OC)c4)[nH]c3n2)CC1 [Example 75, 2-(4-(benzyloxy)-3-methoxyphenyl)-5-(4-(ethylsulfonyl)piperazin-1-yl)-3H-imidazo[4,5-b]pyridine]
0.279 µM	O=S(=O)(C1CC1)N1CCN(c2ccc3nc(-c4ccc(OCc5ccccc5)cc4)[nH]c3n2)CC1 [Example 92, 2-(4-(benzyloxy)phenyl)-5-(4-(cyclopropylsulfonyl)piperazin-1-yl)-3H-imidazo[4,5-b]pyridine]
1.86 µM	FC(F)(F)c1ccc(COc2ccc(-c3nc4ccc(N5CCNCC5)nc4[nH]3)cc2)cc1 [Example 56]
0.336 µM	c1ccc(COc2ccc(-c3nc4cc(C5CCNCC5)cnc4[nH]3)cc2-c2cccnc2)cc1 [Example 64, 2-(4-(benzyloxy)-3-(pyridin-3-yl)phenyl)-6-(piperidin-4-yl)-3H-imidazo[4,5-b]pyridine]
0.774 µM	O=C1CNCCN1c1ccc2nc(-c3ccc(OCc4ccccc4)cc3)[nH]c2n1 [Example 21, 1-(2-(4-(benzyloxy)phenyl)-3H-imidazo[4,5-b]pyridin-5-yl)piperazin-2-one]
0.981 µM	Fc1ccccc1COc1ccc(-c2nc3ccc(N4CCNCC4)nc3[nH]2)cc1 [Example 57]
0.57 µM	[O-][S+]1CCN(c2ccc3nc(-c4ccc(OCc5ccccc5)cc4)[nH]c3n2)CC1 [Example 24, 4-(2-(4-(benzyloxy)phenyl)-3H-imidazo[4,5-b]pyridin-5-yl)thiomorpholine 1-oxide]
1.66 µM	FC(F)(F)c1ccccc1COc1ccc(-c2nc3ccc(N4CCNCC4)nc3[nH]2)cc1 [Example 60]
0.355 µM	CS(=O)(=O)N1CCC(c2ccc3nc(-c4ccc(OCc5ccccc5)cc4)[nH]c3n2)CC1 [Example 87, 2-(4-(benzyloxy)phenyl)-5-(1-(methylsulfonyl)piperidin-4-yl)-3H-imidazo[4,5-b]pyridine]
0.447 µM	CCS(=O)(=O)N1CCN(c2ccc3nc(-c4ccc(OCc5ccccc5)c(-c5cnn(C)c5)c4)[nH]c3n2)CC1 [Example 69, 2-(4-(benzyloxy)-3-(1-methyl-1H-pyrazol-4-yl)phenyl)-5-(4-(ethylsulfonyl)piperazin-1-yl)-3H-imidazo[4,5-b]pyridine]
0.375 µM	CC(=O)N1CCC(c2cnc3[nH]c(-c4ccc(COc5ccccc5)cc4)nc3c2)CC1 [Example 10, 1-(4-(2-(4-(phenoxymethyl)phenyl)-3H-imidazo[4,5-b]pyridin-6-yl)piperidin-1-yl)ethanone]
0.547 µM	c1ccc(COc2ccc(-c3nc4ccc(NCC5CCCCN5)nc4[nH]3)cc2)cc1 (centres unmarked) [Example 51]
1.68 µM	CC(C)(C)OC(=O)NCC1CCCN(c2ccc3nc(-c4ccc(OCc5ccccc5)cc4)[nH]c3n2)C1 (centres unmarked) [Example 28, tert-butyl ((1-(2-(4-(benzyloxy)phenyl)-3H-imidazo[4,5-b]pyridin-5-yl)piperidin-3-yl)methyl)carbamate]
0.82 µM	CS(=O)(=O)N1CCN(c2ccc3nc(-c4ccc(OCc5ccccc5)cc4)[nH]c3n2)CC1 [Example 91, 2-(4-(benzyloxy)phenyl)-5-(4-(methylsulfonyl)piperazin-1-yl)-3H-imidazo[4,5-b]pyridine]
0.333 µM	Fc1cccc(COc2ccc(-c3nc4ccc(N5CCNCC5)nc4[nH]3)cc2)c1 [Example 58]
0.583 µM	NC1CCN(c2ccc3nc(-c4ccc(OCc5ccccc5)cc4)[nH]c3n2)CC1 [Example 54]

SMILES	IC50
COC(=O)c1cc(-c2nc3cc(C4CCNCC4)cnc3[nH]2)ccc1OCc1ccccc1 [Example 66, methyl 2-(benzyloxy)-5-(6-(piperidin-4-yl)-3H-imidazo[4,5-b]pyridin-2-yl)benzoate dihydrogen chloride salt]	0.608 µM
c1ccc(OCc2ccc(-c3nc4cccnc4[nH]3)cc2)cc1 [Example 1, 2-(4-(phenoxymethyl)phenyl)-3H-imidazo[4,5-b]pyridine]	1.49 µM
